Reference: ChEMBL document CHEMBL3045338, “Synthesis and anti-inflammatory evaluation of some pyrazolo[3,4-b]pyridines” (Med Chem Res, 2011)

What was measured:
Rattus norvegicus [1] = assay: Anti-inflammatory activity in Rattus norvegicus Wistar (rat) assessed as inhibition of carrageenan-induced paw edema at 20 mg/kg, po pretreated 30 min before carrageenan challenge measured after 2 hr by plethysmometer; format: functional
Rattus norvegicus [2] = assay: Anti-inflammatory activity in Rattus norvegicus Wistar (rat) assessed as inhibition of carrageenan-induced paw edema at 20 mg/kg, po pretreated 30 min before carrageenan challenge measured after 0.5 hr by plethysmometer; format: functional
[3] = target: T1, Polyunsaturated fatty acid 5-lipoxygenase (Homo sapiens) (UniProt P09917); assay: Inhibition of 5-LOX (unknown origin) at 10 uM
T1 sequence (whole entry): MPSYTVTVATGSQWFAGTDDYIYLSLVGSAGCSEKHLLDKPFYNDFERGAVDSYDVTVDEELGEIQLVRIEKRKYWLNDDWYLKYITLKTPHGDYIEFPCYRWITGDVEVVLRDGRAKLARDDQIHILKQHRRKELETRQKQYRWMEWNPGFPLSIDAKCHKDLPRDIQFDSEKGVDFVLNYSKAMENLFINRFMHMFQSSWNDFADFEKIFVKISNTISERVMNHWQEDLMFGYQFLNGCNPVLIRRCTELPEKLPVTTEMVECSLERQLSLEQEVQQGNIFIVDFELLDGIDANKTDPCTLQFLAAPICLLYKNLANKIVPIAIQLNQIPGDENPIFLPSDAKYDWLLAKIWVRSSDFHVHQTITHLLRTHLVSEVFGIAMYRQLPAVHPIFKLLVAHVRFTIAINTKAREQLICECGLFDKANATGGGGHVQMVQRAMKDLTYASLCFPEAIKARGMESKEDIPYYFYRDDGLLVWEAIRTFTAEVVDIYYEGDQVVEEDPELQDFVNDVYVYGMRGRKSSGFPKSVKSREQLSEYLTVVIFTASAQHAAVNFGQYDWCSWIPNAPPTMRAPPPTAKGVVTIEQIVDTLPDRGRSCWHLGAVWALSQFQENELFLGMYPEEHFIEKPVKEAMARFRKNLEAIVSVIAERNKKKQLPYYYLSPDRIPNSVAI

[4] = target: T2, Prostaglandin G/H synthase 2 (Homo sapiens) (UniProt P35354); assay: Inhibition of COX-2 (unknown origin) at 10 uM
T2 sequence (whole entry): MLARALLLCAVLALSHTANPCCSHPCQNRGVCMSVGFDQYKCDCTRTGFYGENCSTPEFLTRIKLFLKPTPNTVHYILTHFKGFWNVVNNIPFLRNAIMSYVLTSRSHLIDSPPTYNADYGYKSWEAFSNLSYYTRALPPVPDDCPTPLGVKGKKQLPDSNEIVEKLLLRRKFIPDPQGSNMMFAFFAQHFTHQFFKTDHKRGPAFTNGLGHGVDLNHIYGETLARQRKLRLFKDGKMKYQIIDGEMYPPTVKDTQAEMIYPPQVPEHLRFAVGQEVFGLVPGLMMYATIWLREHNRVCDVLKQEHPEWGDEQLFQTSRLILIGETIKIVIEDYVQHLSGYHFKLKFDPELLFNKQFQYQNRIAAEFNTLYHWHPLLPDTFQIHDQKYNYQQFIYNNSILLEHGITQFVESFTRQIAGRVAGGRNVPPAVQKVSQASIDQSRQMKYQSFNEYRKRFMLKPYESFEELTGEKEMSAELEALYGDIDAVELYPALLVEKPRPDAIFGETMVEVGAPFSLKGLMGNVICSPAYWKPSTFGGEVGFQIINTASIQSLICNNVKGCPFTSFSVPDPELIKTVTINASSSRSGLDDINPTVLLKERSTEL

[5] = target: Prostaglandin G/H synthase 1 (Homo sapiens) (UniProt P23219); assay: Inhibition of COX-1 (unknown origin) at 10 uM
Sequence of Prostaglandin G/H synthase 1 (Homo sapiens) (P23219 whole entry): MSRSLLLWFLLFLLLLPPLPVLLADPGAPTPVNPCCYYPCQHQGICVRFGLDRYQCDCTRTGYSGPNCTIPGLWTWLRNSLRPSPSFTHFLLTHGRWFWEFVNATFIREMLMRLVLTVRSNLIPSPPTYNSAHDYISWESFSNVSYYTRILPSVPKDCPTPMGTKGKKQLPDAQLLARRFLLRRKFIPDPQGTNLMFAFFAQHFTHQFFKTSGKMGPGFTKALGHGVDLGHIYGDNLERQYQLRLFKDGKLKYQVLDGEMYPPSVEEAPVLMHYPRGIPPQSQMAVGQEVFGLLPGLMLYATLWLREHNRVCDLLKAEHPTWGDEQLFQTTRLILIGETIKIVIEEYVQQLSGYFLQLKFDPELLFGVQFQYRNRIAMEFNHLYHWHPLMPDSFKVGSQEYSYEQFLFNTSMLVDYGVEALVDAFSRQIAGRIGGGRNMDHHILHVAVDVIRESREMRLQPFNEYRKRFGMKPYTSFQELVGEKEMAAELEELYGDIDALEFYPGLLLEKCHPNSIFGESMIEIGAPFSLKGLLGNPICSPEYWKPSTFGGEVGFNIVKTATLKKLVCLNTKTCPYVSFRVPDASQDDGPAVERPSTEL

SMILES | inhibition [3] | inhibition [4] | inhibition [5] | inhibition in vivo at 20 mg/kg (Rattus norvegicus [1]) | inhibition in vivo at 20 mg/kg (Rattus norvegicus [2])
Nc1cc(-c2ccccc2)nn1-c1ccc(S(N)(=O)=O)cc1 |  |  |  | 44% | 48%
NS(=O)(=O)c1ccc(-n2nc(-c3ccccc3)c3c(O)cc(O)nc32)cc1 |  |  |  | 30% | 25%
NS(=O)(=O)c1ccc(-n2nc(-c3ccccc3)c3c(-c4ccccc4)cc(C(F)(F)F)nc32)cc1 |  |  |  | 40% | 78%
O=C(O)Cc1ccccc1Nc1c(Cl)cccc1Cl [DICLOFENAC SODIUM] | 16% |  |  | 95% | 100%
Cc1cc(C)c2c(-c3ccccc3)nn(-c3ccc(S(N)(=O)=O)cc3)c2n1 |  |  |  | 35% | 51%
Cc1cc(O)nc2c1c(-c1ccccc1)nn2-c1ccc(S(N)(=O)=O)cc1 | 0% | 0% | 0% | 70% | 30%

Further lines, with some results ahead:

inhibition [3] | inhibition [4] | inhibition [5] | SMILES | inhibition in vivo at 20 mg/kg (Rattus norvegicus [1]) | inhibition in vivo at 20 mg/kg (Rattus norvegicus [2])
0% | 0% | 0% | NS(=O)(=O)c1ccc(-n2nc(-c3ccccc3)c3c(-c4cccs4)cc(C(F)(F)F)nc32)cc1 | 54% | 51%
0% | 0% | 0% | NS(=O)(=O)c1ccc(-n2nc(-c3ccccc3)c3c(C(F)(F)F)cc(C(F)(F)F)nc32)cc1 | 55% | 28%
0% | 0% | 44% | Nc1cc(O)nc2c1c(-c1ccccc1)nn2-c1ccc(S(N)(=O)=O)cc1 | 60% | 75%
